Holding throughout (type): cell-based
The target in test [1] is T1, human TLR7 (Homo sapiens, UniProt Q9NYK1).
T1 construct: host or cells: HEK-Blue cells (HEK293-derived reporter line)
T1 sequence (Q9NYK1 27-1049): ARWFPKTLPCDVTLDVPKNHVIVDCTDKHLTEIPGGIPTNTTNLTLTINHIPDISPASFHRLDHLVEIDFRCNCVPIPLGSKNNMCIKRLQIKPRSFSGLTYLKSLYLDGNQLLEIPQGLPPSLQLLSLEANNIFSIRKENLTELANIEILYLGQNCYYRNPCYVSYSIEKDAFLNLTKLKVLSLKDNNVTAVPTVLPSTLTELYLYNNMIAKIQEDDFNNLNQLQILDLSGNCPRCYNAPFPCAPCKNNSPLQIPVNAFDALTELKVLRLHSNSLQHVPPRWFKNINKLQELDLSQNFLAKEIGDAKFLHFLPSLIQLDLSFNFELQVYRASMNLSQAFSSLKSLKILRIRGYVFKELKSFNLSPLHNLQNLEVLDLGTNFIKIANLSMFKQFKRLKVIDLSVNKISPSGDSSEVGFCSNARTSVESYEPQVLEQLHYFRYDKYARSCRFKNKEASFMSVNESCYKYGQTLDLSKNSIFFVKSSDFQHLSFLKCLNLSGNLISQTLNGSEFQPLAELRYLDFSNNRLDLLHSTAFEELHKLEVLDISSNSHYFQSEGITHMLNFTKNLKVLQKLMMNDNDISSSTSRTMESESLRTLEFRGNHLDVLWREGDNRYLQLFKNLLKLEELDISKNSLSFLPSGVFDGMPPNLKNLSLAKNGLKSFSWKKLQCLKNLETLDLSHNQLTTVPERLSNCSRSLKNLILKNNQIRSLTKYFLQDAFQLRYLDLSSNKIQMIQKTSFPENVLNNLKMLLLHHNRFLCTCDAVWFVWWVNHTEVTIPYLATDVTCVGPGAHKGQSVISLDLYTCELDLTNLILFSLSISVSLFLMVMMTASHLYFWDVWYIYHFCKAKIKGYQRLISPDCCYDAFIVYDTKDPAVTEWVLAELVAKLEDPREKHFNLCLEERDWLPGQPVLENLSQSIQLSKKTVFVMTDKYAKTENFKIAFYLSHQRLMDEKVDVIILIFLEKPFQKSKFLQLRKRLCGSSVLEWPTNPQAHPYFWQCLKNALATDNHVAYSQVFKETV
Nature of the test: TLR7 inhibition reporter assay (HEK-Blue cells, SEAP reporter, gardiquimod stimulation). The following applies: HEK-Blue cells overexpressing human TLR7, SEAP reporter, gardiquimod 7.5 μM. A digest of the protocol:
(§1)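 Percent inhibition of agonist-induced SEAP secretion in HEK-Blue cells after 22 h at 37 °C. Stimuli: 7.5 μM gardiquimod, 15.9 μM R848, 5 nM ODN2006 for TLR7, TLR8 and TLR9, added after 30 min compound exposure over a 0.05 nM–50 μM range.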
For orientation: A reporter such as luciferase makes a cellular process visible.

Test [2] has as its target T2, human TLR8 (Homo sapiens, UniProt Q9NR97).
T2 construct: host or cells: HEK-Blue cells (HEK293-derived reporter line)
T2 sequence (Q9NR97 27-1041): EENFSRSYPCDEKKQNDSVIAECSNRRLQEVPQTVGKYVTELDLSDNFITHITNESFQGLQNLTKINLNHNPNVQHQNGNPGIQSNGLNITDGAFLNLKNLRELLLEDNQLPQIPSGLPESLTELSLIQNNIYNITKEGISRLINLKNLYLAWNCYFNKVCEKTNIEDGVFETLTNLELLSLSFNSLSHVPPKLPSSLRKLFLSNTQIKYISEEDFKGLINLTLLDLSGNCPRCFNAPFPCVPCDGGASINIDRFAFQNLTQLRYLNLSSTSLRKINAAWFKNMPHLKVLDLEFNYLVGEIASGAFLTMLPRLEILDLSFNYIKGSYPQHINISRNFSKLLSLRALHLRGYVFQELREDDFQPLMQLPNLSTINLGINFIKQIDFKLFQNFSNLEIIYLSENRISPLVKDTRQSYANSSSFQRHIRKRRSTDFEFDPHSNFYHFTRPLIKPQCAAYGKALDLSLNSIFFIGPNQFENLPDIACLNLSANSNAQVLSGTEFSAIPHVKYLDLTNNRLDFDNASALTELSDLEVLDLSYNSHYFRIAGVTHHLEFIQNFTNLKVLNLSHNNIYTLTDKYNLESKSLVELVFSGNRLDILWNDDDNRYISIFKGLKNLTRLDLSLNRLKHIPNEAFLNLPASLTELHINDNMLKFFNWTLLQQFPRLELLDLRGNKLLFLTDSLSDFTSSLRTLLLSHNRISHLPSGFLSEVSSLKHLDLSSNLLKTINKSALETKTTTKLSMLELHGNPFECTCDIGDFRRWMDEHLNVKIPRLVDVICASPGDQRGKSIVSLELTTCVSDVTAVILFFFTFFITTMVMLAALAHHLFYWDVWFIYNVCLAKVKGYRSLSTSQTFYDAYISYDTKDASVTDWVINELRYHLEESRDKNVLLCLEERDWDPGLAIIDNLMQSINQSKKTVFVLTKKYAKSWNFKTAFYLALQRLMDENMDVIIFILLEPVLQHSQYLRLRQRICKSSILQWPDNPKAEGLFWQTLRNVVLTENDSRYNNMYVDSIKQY
Nature of the test: TLR8 inhibition reporter assay (HEK-Blue cells, SEAP reporter, R848 stimulation). The following applies: HEK-Blue cells overexpressing human TLR8, SEAP reporter, R848 15.9 μM. In short, it runs like this:
as §1

Test [3] deals with T3, human TLR9 (Homo sapiens, UniProt Q9NR96).
T3 construct: host or cells: HEK-Blue cells (HEK293-derived reporter line)
T3 sequence (Q9NR96 26-1032): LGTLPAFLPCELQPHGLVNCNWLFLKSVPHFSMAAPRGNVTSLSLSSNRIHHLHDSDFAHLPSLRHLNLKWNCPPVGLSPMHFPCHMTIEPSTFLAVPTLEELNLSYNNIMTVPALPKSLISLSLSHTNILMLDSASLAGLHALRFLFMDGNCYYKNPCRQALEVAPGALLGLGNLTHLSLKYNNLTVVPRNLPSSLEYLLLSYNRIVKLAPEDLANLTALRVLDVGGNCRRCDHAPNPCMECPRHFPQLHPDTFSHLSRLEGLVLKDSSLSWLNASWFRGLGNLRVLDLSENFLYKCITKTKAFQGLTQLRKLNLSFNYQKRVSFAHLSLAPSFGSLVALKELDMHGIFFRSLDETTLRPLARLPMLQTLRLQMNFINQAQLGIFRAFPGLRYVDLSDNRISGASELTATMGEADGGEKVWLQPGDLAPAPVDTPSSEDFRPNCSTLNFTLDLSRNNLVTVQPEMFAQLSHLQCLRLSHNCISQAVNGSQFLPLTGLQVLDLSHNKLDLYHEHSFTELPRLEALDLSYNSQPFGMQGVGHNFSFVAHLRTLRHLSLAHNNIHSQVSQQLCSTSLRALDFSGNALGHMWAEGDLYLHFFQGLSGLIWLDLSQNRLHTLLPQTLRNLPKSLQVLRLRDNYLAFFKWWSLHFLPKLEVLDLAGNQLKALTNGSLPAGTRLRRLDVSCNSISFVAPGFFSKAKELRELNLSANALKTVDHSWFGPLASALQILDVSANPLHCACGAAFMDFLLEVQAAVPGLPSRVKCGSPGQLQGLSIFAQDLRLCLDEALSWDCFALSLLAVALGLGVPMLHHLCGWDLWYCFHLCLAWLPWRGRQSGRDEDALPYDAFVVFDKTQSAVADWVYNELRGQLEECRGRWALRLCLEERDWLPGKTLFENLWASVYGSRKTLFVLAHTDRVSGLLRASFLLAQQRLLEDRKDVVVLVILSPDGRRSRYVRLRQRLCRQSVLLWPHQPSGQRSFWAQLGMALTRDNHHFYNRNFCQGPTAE
Put plainly: TLR9 inhibition reporter assay (HEK-Blue cells, SEAP reporter, ODN2006 stimulation). The following applies: HEK-Blue cells overexpressing human TLR9, SEAP reporter, ODN2006 5 nM. A digest of the protocol: as §1

These results are taken from US11739098B2 (BRISTOL-MYERS SQUIBB COMPANY, priority 2017, dated 2023).

In general, IC50 refers to the concentration at which inhibition is half-maximal.

`CNCC(=O)N1CCC(c2ccc3[nH]c(-c4cc(F)c5nccn5c4)c(C(C)C)c3c2)CC1` [Example 547, 1-(4-(2-(8-fluoroimidazo[1,2-a]pyridin-6-yl)-3-isopropyl-1H-indol-5-yl)piperidin-1-yl)-2-(methylamino)ethan-1-one]: the IC50 in test [1] was below 0.1 µM; in test [2], 0.1 to 1 µM; in test [3], 0.1 to 1 µM.

In the case of `CC(C)c1c(-c2ccc3ncnn3n2)[nH]c2ccc(C3CCN(C(=O)CN(C)C)CC3)cc12` [Example 452, 1-(4-(2-([1,2,4]triazolo[1,5-b]pyridazin-6-yl)-3-isopropyl-1H-indol-5-yl)piperidin-1-yl)-2-(dimethylamino)ethan-1-one], the concentration for half-maximal inhibition (IC50) is below 0.1 µM in test [1], below 0.1 µM in test [2] and 1 to 50 µM in test [3].

With `CC(C)c1c(-c2ccnc3c2ccn3S(C)(=O)=O)[nH]c2ccc(C3CCN(C(=O)CN(C)C)CC3)cc12` [Example 450, 2-(dimethylamino)-1-(4-(3-isopropyl-2-(1-(methylsulfonyl)-1H-pyrrolo[2,3-b]pyridin-4-yl)-1H-indol-5-yl)piperidin-1-yl)ethanone], the values for the concentration for half-maximal inhibition (IC50) in test [1], in test [2] and in test [3] were 1 to 50 µM, below 0.1 µM and 0.1 to 1 µM, respectively.

Turning to `Cc1cn2cc(-c3[nH]c4ccc(C5CCN(C(C)C)CC5)cc4c3C(C)C)cc(C(F)(F)F)c2n1` [Example 943, 6-(3-isopropyl-5-(1-isopropylpiperidin-4-yl)-1H-indol-2-yl)-2-methyl-8-(trifluoromethyl)imidazo[1,2-a]pyridine], the results for the IC50 in test [1], in test [2] and in test [3] were below 0.1 µM, 0.1 to 1 µM and 0.1 to 1 µM, respectively.

In the case of `Cc1cc(-c2[nH]c3ccc(C4CCN(C(=O)CN(C)C)CC4)cc3c2C(C)C)cc2ncnn12` [Example 536, 2-(dimethylamino)-1-(4-(3-isopropyl-2-(5-methyl-[1,2,4]triazolo[1,5-a]pyridin-7-yl)-1H-indol-5-yl)piperidin-1-yl)ethan-1-one], the IC50 in test [1] is below 0.1 µM; in test [2] it was below 0.1 µM; in test [3], 1 to 50 µM.

For `CNC(=O)CN1CCC(c2ccc3[nH]c(-c4ccc5ncc(C#N)n5c4)c(C(C)C)c3c2)CC1` [Example 390, 2-(4-(2-(3-cyanoimidazo[1,2-a]pyridin-6-yl)-3-isopropyl-1H-indol-5-yl)piperidin-1-yl)-N-methylacetamide], the IC50 in test [1] is 0.1 to 1 µM; in test [2], 0.1 to 1 µM; in test [3], above 50 µM.

As for `CNC(=O)CN1CCC(c2ccc3[nH]c(-c4ccn5nncc5c4)c(C(C)C)c3c2)CC1` [Example 303, 2-(4-(2-([1,2,3]triazolo[1,5-a]pyridin-5-yl)-3-isopropyl-1H-indol-5-yl)piperidin-1-yl)-N-methylacetamide], the IC50 is below 0.1 µM in test [1], 0.1 to 1 µM in test [2] and 1 to 50 µM in test [3].

`CNCCN1CCC(c2ccc3[nH]c(-c4ccnc5[nH]ncc45)c(C(C)C)c3c2)C(F)C1` (stereo not drawn) [Example 675, 2-(3-fluoro-4-(3-isopropyl-2-(1H-pyrazolo[3,4-b]pyridin-4-yl)-1H-indol-5-yl)piperidin-1-yl)-N-methylethan-1-amine]: the IC50 is below 0.1 µM in test [1], below 0.1 µM in test [2] and 0.1 to 1 µM in test [3].

With `Cc1nc(CN2CCC(c3ccc4[nH]c(-c5ccc6nccn6c5)c(C(C)C)c4c3)CC2)c[nH]1` [Example 938, 6-(3-isopropyl-5-(1-((2-methyl-1H-imidazol-4-yl)methyl)piperidin-4-yl)-1H-indol-2-yl)imidazo[1,2-a]pyridine], the IC50 in test [1] is below 0.1 µM; in test [2], below 0.1 µM; in test [3] it was 0.1 to 1 µM.

As to `CC(C)c1c(-c2c[nH]c3ccncc23)[nH]c2ccc(C3CCNCC3)cc12` [Example 14, 3-(3-isopropyl-5-(piperidin-4-yl)-1H-indol-2-yl)-1H-pyrrolo[3,2-c]pyridine], the IC50 was above 3.13 µM in test [1], above 3.13 µM in test [2] and 0.1 to 1 µM in test [3].

Consider `CC(C)c1c(-c2ccc3cc[nH]c3c2)[nH]c2ccc(C3CCNCC3)cc12` [Example 65, 3-isopropyl-5-(piperidin-4-yl)-1H,1′H-2,6′-biindole], for which the IC50 in test [1], in test [2] and in test [3] was 1 to 50 µM in each case.

For `CC(C)c1c(-c2ccnc3[nH]ncc23)[nH]c2cc(F)c(C3CCN(CC4CCNC4)CC3)cc12` (stereo not drawn) [Example 853, 4-(6-fluoro-3-isopropyl-5-(1-(pyrrolidin-3-ylmethyl)piperidin-4-yl)-1H-indol-2-yl)-1H-pyrazolo[3,4-b]pyridine], the IC50 in test [1], in test [2] and in test [3] was below 0.1 µM each time.

For the compound `CC(C)c1c(-c2cnc3ncnn3c2)[nH]c2ccc(C3CCN(C4COC4)CC3)cc12` [Example 721, 6-(3-isopropyl-5-(1-(oxetan-3-yl)piperidin-4-yl)-1H-indol-2-yl)-[1,2,4]triazolo[1,5-a]pyrimidine], the half-inhibitory concentration (IC50) in test [1] is below 0.1 µM; in test [2] it was 0.1 to 1 µM; in test [3], 1 to 50 µM.
